In assay [1] the test system is Trypanosoma brucei. The assay is described as follows: Inhibitory activity against adenosine uptake through P2 adenosine transporter of blood stream Trypanosoma brucei trypomastigotes at the concentration 100 ug/mL.
The subject of assay [2] is Trypanosoma brucei. The assay is described as follows: Inhibitory activity against adenosine uptake through P2 adenosine transporter of blood stream Trypanosoma brucei trypomastigotes at the concentration 10 ug/mL.
Assay [3] deals with Trypanosoma brucei. Kind of assay: Inhibitory activity against adenosine uptake through P2 adenosine transporter of blood stream Trypanosoma brucei trypomastigotes at the concentration 1 ug/mL.
Assay [4] has as its system Trypanosoma brucei brucei. Kind of assay: In vitro activity against bloodstream from trypomastigotes. It counts as functional, organism-based.
In assay [5] the test system is Trypanosoma brucei brucei. The assay is described as follows: In vitro activity against Trypanosoma brucei trypomastigotes form. It counts as functional, organism-based.

By inhibition is commonly meant the share of the control response that was lost under treatment. The low end stands for little suppression, the high end for strong suppression. Broadly, the IC50 is the point on the concentration scale where inhibition reaches its midpoint. Low values mean greater potency, high ones weaker potency. For `N=C(N)c1ccc(/N=N/Nc2ccc(C(=N)N)cc2)cc1` [DIMINAZENE], the values for the inhibition in the assay with Trypanosoma brucei [1], in the assay on Trypanosoma brucei [2] and in the assay on Trypanosoma brucei [3] were 99%, 84% and 67%, respectively. In addition, the half-maximal inhibitory concentration (IC50) in assay [4] is 0.003 µM.
As for `NCCCNCCCCN(CCCN)c1nc(N)nc(N)n1`, the inhibition with Trypanosoma brucei [1] came out at 60%; with Trypanosoma brucei [2] it was 44%; in the assay on Trypanosoma brucei [3] it was 24%. Besides, it took 12 µM to reach half-maximal inhibition in assay [5] (IC50).
On to `NCCCCN(CCCN)c1nc(N)nc(N)n1`, for which the inhibition with Trypanosoma brucei [1] was 73%; in the assay on Trypanosoma brucei [2] it was 47%; in the assay on Trypanosoma brucei [3], 29%. This molecule also gave a half-maximal inhibitory concentration (IC50) in assay [5] above 270 µM.
In the same order, the values of `NCCCCN(CCCN)CCCNc1nc(N)nc(N)n1` are 61%, 5%, 7% and above 200 µM.
For `NCCCNCCCCCCCNCCCNc1nc(N)nc(N)n1`, the inhibition was 77% in the assay with Trypanosoma brucei [1], 32% in the assay on Trypanosoma brucei [2] and 12% with Trypanosoma brucei [3]. Besides, inhibition in assay [4] was half-maximal at 21 µM (IC50).
Take `Nc1[nH]cnc2ncnc1-2`: the inhibition worked out at 99% in the assay on Trypanosoma brucei [1], 89% in the assay with Trypanosoma brucei [2] and 88% in the assay on Trypanosoma brucei [3].
In the case of `Nc1nc(N)nc(NCCCNCCCNCCCCCCCNCCCNCCCNc2nc(N)nc(N)n2)n1`, the inhibition in the assay on Trypanosoma brucei [1] came to 88%; with Trypanosoma brucei [2], 18%; in the assay with Trypanosoma brucei [3], 0%. The IC50 in assay [4] turned out to be 24 µM.
On to `Nc1nc(N)nc(NCCCNCCCCCCCNCCCNc2nc(N)nc(N)n2)n1`, for which the results for the inhibition in the assay on Trypanosoma brucei [1], in the assay on Trypanosoma brucei [2] and with Trypanosoma brucei [3] were 93%, 63% and 36%, respectively. In assay [4], this molecule yielded a concentration for half-maximal inhibition (IC50) of 110 µM.
On to `NCCCNCCCCN(CCCN)CCCNc1nc(N)nc(N)n1`, for which the inhibition in the assay on Trypanosoma brucei [1] was found to be 37%; with Trypanosoma brucei [2], 17%; in the assay with Trypanosoma brucei [3], 2%. This molecule also returned an IC50 in assay [5] of 24 µM.

For the origin of these results see ChEMBL document CHEMBL1131358, “An approach to use an unusual adenosine transporter to selectively deliver polyamine analogues to trypanosomes” (Bioorg Med Chem Lett, 1998).
